For one test, the species on record is Homo sapiens. The experiment in a line: Inhibition of human gel filtered platelet aggregation stimulated by ADP ([…]). The format is functional, organism-based.
Test [1] has as its target Integrin alpha-IIb/beta-3 (Homo sapiens) (UniProt P05106+P08514). Briefly: Affinity for purified alpha IIb beta-3 integrin. The format is protein-complex assay.

By pIC50 is commonly meant the IC50 on a negative log10 scale, so that one unit is a factor of ten. Read a high pIC50 as a small IC50.

pIC50: −log10 of the molar value.

Molecule `O=C(O)CCNC(=O)c1ccc2c(c1)C(=O)N(CCC1CCNCC1)C2` showed a negative-log IC50 (pIC50) in the test listed under Homo sapiens of 7.57. Further, the ED50 in test [1] is 12 nM.
For `O=C(O)C1=C/C(=N\C(S)=N\CCS(=O)(=O)N[C@@H](CNC(=O)c2ccc3c(c2)C(=O)N(CCC2CCNCC2)C3)C(=O)O)C=CC1=C1c2ccc(O)cc2Oc2cc(O)ccc21`, in that order: 7.51 and 1.9 nM.
Consider `CN(C)c1cccc2c(S(=O)(=O)N[C@@H](CNC(=O)c3ccc4c(c3)C(=O)N(CCC3CCNCC3)C4)C(=O)O)cccc12`, for which the pIC50 in the test listed under Homo sapiens was 7.92. Moreover, in test [1], the ED50 turned out to be 2.1 nM.
The like results for `CCCCS(=O)(=O)N[C@@H](Cc1ccc(OCCCCC2CCNCC2)cc1)C(=O)O` [TIROFIBAN] were, in that order, 7.74 and 0.9 nM.

(Values after ChEMBL document CHEMBL1129100, “Non-peptide glycoprotein IIb/IIIa inhibitors. 9. Centrally constrained alpha-sulfonamides are useful tools for exploring platelet receptor function” (Bioorg Med Chem Lett, 1996).)
